Values quoted from earlier work, collected in patent US20260108515A1, “A RAPIDLY DISINTEGRATING TABLET OF ROSUVASTATIN AND ITS PROCESS OF PREPARATION” (NOVUMGEN LIMITED, priority 2022, published 2026).

Assays:
[1] = in vivo
[2] = system: high-density lipoprotein—Cholesterol; conditions: patients with raised triglyceride levels
[3] = high permeability and low solubility
CYP3A4 = CYP3A4 (Homo sapiens, UniProt P08684)
Chain of CYP3A4 (P08684 whole entry): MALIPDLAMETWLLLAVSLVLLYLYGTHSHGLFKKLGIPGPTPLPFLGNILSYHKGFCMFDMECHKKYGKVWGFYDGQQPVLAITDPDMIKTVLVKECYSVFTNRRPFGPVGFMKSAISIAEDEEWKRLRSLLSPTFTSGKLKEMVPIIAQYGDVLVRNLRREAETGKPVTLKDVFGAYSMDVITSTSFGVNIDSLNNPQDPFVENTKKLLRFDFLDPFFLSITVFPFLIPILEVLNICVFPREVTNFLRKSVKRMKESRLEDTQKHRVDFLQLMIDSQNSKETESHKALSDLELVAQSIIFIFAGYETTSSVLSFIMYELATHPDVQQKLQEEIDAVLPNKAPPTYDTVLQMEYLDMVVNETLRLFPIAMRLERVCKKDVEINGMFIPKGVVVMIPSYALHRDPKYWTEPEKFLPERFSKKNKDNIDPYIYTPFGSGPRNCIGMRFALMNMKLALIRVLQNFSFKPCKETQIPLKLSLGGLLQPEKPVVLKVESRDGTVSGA

SMILES: CC(C)c1nc(N(C)S(C)(=O)=O)nc(-c2ccc(F)cc2)c1/C=C/[C@@H](O)C[C@@H](O)CC(=O)O [Rosuvastatin, (E,3R,5S)-7-[4-(4-fluorophenyl)-2-[methyl(methylsulfonyl)amino]-6-propan-2-ylpyrimidin-5-yl]-3,5-dihydroxyhept-6-enoic acid]
- plasma half-life [1]: 18 to 24 h
- raises high-density lipoprotein—Cholesterol [2]: 15-20%
- biopharmaceutics classification system (BCS) class [3]: class II
- metabolizing isoenzyme (CYP3A4): metabolized primarily by CYP3A4
